Source: patent publication US20010053783A1, “PHARMACEUTICAL COMPOUNDS” (priority 1997, published 2001)

Target: human 2A receptor (5-HT2A) (Homo sapiens, UniProt P28223)
Assay: 5-HT2A receptor binding, displacement of [3H] ketanserin (Nelson et al.)
Conditions: human 2A receptor binding, versus 5-fluoroindolyl propyl comparator
Excerpt: As mentioned above, the compounds of the invention are active at the serotonin, 5-HT2A, receptor.

Sequence of human 2A receptor (5-HT2A) (P28223 whole entry): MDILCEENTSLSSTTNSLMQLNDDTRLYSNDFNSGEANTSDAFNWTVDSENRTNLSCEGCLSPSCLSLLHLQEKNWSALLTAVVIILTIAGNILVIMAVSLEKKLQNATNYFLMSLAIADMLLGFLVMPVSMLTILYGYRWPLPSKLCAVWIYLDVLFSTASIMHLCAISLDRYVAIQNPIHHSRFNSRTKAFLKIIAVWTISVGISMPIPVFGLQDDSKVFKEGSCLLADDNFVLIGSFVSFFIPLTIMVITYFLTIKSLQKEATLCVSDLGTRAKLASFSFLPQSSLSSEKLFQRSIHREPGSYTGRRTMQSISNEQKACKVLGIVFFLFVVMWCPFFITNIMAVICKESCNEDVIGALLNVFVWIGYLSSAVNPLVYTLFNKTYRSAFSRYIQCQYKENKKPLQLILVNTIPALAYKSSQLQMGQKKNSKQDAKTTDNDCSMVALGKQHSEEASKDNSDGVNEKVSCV

SMILES: O=S1(=O)N(CCN2CC=C(c3c[nH]c4cc(F)ccc34)CC2)c2cccc3c2N1CCC3 [1-{2-[4-(6-Fluoro-[1H]-indol-3-yl)-1,2,3,6-tetrahydro-1-pyridinyl]-1-ethyl}-5,6-dihydro-1H,4H-1,2,5-thiadiazolo[4,3,2-ij]quinoline-2,2-dioxide]
- times more active than the closest structurally related compound of EP-A 0 433 149: approximately twenty-eight
